Calls of active or inactive are those of the source. The rule behind the calls is not given here.

Results on two molecules are retold here after ChEMBL document CHEMBL3580632, “Lumiquinone A, an α-Aminomalonate-Derived Aminobenzoquinone from Photorhabdus luminescens” (2015).

The test system of assay [1] is Escherichia coli. In words: Antimicrobial activity against Escherichia coli Nissle1917 assessed as inhibition of microbial growth incubated at 30 degC for 24 hrs by paper disk method. The assay is classed as functional, organism-based.
The subject of assay [2] is Bacillus subtilis. In words: Antimicrobial activity against Bacillus subtilis NCIB3610 assessed as inhibition of microbial growth at 50 ug/disk incubated at 30 degC for 24 hrs by paper disk method. The assay is classed as functional. To be noted: NCIB3610, 24 h, read-out: IZ.
Assay [3] relates to Saccharomyces cerevisiae. Put plainly: Antimicrobial activity against Saccharomyces cerevisiae assessed as inhibition of microbial growth at 50 ug/disk incubated at 30 degC for 24 hrs by paper disk method. The assay is classed as functional.

On to `CC(C)C1=C(O)C(=O)C(/C=C/c2ccccc2)=C(N)C1=O`, for which, in assay [1], the “growth inhibition (GI)” value was “inactive”. The zone of inhibition at 50 µg/disc in assay [2] was determined as 4 mm.

On to `CC(C)c1c(O)cc(/C=C/c2ccccc2)cc1O`, for which the “growth inhibition (GI)” value in assay [3] was “Active”. In assay [1], the “growth inhibition (GI)” value is “inactive”.
